Measurements as given in US20240310368A1, “DETECTION KIT FOR CATECHOLAMINES AND METABOLITES THEREOF IN PLASMA/URINE AND DETECTION METHOD THEREOF” (Calibra Scientific, Inc., priority 2023, published 2024).
Where “and” joins values, the source holds several entries; their conditions need not be identical. Identical values can stand only once.

Legend:
[1] = Stabilizing effect of accelerated stabilizers (37° C., 14 days) on plasma samples then accelerated at 30° C. for 1.5 days; assay type: physicochemical, human; conditions: for Relative deviation %: Accelerate vs Control; for concentration in plasma samples, Control / concentration in plasma samples, Accelerate: single replicates; for concentration in plasma samples, Accelerate: stabilizer accelerated 37° C. 14 days, plasma then accelerated at 30° C. for 1.5 days
Method: (§1) In the present example, the stabilizing effect of the stabilizers on plasma samples, standard products and quality control products after acceleration was further verified. The stabilizers were accelerated at 37° C. for 14 days (equivalent to 1 year at 2-8° C.), added into the plasma samples in proportions and then accelerated at 30° C. for 1.5 days (equivalent to 12 months at −30° C. to −15° C.). The stabilizers were accelerated at 37° C. for 14 days (equivalent to 1 year at 2-8° C.), added into the standard products and the quality control products in proportions and then accelerated at 30° C. for 2 days (equivalent to 18 months at −30° C. to −15° C.).

[2] = Stabilizing effect of accelerated stabilizers (37° C., 14 days) on standard products and quality control products then accelerated at 30° C. for 2 days; assay type: physicochemical; conditions: for Relative deviation %: 2 days at 30° C. vs Control; for concentration in standard products and quality control products, 2 days at 30° C. / concentration in standard products and quality control products, Control: single replicates
Method: Standard products of epinephrine, norepinephrine, dopamine, metanephrine, normetanephrine and 3-methoxytyramine were prepared into mixed solutions, and blank plasma containing a stabilizer was used as a matrix to prepare standard products and quality control products.
as §1

[3] = Acceleration test of plasma samples with stabilizers (30° C. for 1.5 days, against control plasma stored at −95° C. to −65° C.), LC-MS/MS Area/IS Area
Method: Samples were collected in EDTA-anticoagulant blood collection tubes and then rapidly subjected to […] centrifugation at 2-8° C. to separate plasma. 0.95 mL of the plasma was transferred into centrifuge tubes. After 50 μL of the stabilizer was added for uniform mixing, the plasma samples were stored by refrigeration or freezing.
• (1) 500 μL of plasma/urine samples to be tested were taken, and 50 μL of the internal standard solution and 500 μL of the buffer solution were sequentially added for vertex mixing to obtain diluted samples. • (2) The magnetic medium composite material suspension was subjected to full vortex treatment to reach a suspension state, and then subsequent operation was performed. • (3) Different reagents were added into wells of a preprocessing plate according to the follow operation: adding 200 μL of the magnetic medium composite material suspension in column 1, adding 500 μL of the balance solution in column 2, adding 850 μL of the diluted samples in column 3, adding 500 μL of the balance solution in column 4, adding 200 μL of a rinsing solution in column 5, and adding 100 μL of the elution solution in column 6. • (4) An extraction operation procedure was carried out, as shown in Table 5.
Each group of the plasma samples were stored at 30° C. for 1.5 days, and plasma without addition of any compounds stored at −95° C. to −65° C. was used as a control. […] The stabilizing effect of the single-component stabilizers on the plasma samples was investigated.
The stabilizers were mixed with plasma (the volume ratio of the stabilizers to plasma samples was 1:19), and high concentration plasma samples and low concentration plasma samples were prepared by the method provided in Example 1.
With plasma stored at −95° C. to −65° C. as a control, the above plasma samples were separately stored at 30° C. for 1.5 days to investigate the stability. […]

[4] = samples at a high concentration level
[5] = samples at a low concentration level
[6] = plasma at a high concentration level, plasma containing 50 μg/mL of the component, control plasma 0.624
[7] = plasma at a high concentration level, plasma containing 50 μg/mL of the component, control plasma 1.522
[8] = plasma at a high concentration level, plasma containing 50 μg/mL of the component, control plasma 2.27
[9] = plasma at a high concentration level, plasma containing 200 μg/mL of the component, control plasma 0.624
[10] = plasma at a high concentration level, plasma containing 200 μg/mL of the component, control plasma 1.522
[11] = plasma at a high concentration level, plasma containing 200 μg/mL of the component, control plasma 2.27
[12] = plasma at a low concentration level, plasma containing 50 μg/mL of the component, control plasma 0.079
[13] = plasma at a low concentration level, plasma containing 50 μg/mL of the component, control plasma 0.219
[14] = plasma at a low concentration level, plasma containing 50 μg/mL of the component, control plasma 0.233
[15] = plasma at a low concentration level, plasma containing 200 μg/mL of the component, control plasma 0.079
[16] = plasma at a low concentration level, plasma containing 200 μg/mL of the component, control plasma 0.219
[17] = plasma at a low concentration level, plasma containing 200 μg/mL of the component, control plasma 0.233
[18] = plasma at a high concentration level, plasma containing 0.5% of the acid, control plasma 0.624
[19] = plasma at a high concentration level, plasma containing 0.5% of the acid, control plasma 1.522
[20] = plasma at a high concentration level, plasma containing 0.5% of the acid, control plasma 2.27
[21] = plasma at a high concentration level, plasma containing 2.0% of the acid, control plasma 0.624
[22] = plasma at a high concentration level, plasma containing 2.0% of the acid, control plasma 1.522
[23] = plasma at a high concentration level, plasma containing 2.0% of the acid, control plasma 2.27
[24] = plasma at a low concentration level, plasma containing 0.5% of the acid, control plasma 0.079
[25] = plasma at a low concentration level, plasma containing 0.5% of the acid, control plasma 0.219
[26] = plasma at a low concentration level, plasma containing 0.5% of the acid, control plasma 0.233
[27] = plasma at a low concentration level, plasma containing 2.0% of the acid, control plasma 0.079
[28] = plasma at a low concentration level, plasma containing 2.0% of the acid, control plasma 0.219
[29] = plasma at a low concentration level, plasma containing 2.0% of the acid, control plasma 0.233

## COc1cc(C(O)CN)ccc1O (stereo not shown) [NMN]
[1]; [4]
  Relative deviation %: 2.1%
  concentration in plasma samples, Control: 0.97087 ng/mL and 0.85456 ng/mL and 0.85498 ng/mL
  concentration in plasma samples, Accelerate: 0.91096 ng/mL and 0.88464 ng/mL and 0.94153 ng/mL
[1]; [5]
  Relative deviation %: 1.7%
  concentration in plasma samples, Control: 0.17577 ng/mL and 0.16472 ng/mL and 0.17242 ng/mL
  concentration in plasma samples, Accelerate: 0.17659 ng/mL and 0.17047 ng/mL and 0.17436 ng/mL
[2]; High concentration level
  Relative deviation %: −3.68%
  average concentration, 2 days at 30° C.: 1910.2 pg/mL
  concentration in standard products and quality control products, 2 days at 30° C.: 1.89388 ng/mL and 1.85479 ng/mL and 1.98193 ng/mL
  average concentration, Control: 1983.21 pg/mL
  concentration in standard products and quality control products, Control: 2.00785 ng/mL and 1.95209 ng/mL and 1.98969 ng/mL
[2]; Low concentration level
  Relative deviation %: 1.41%
  average concentration, 2 days at 30° C.: 24.2 pg/mL
  concentration in standard products and quality control products, 2 days at 30° C.: 0.02503 ng/mL and 0.02506 ng/mL and 0.0225 ng/mL
  average concentration, Control: 23.86 pg/mL
  concentration in standard products and quality control products, Control: 0.02255 ng/mL and 0.02588 ng/mL and 0.02315 ng/mL
[2]; Medium concentration level
  Relative deviation %: 1.5%
  average concentration, 2 days at 30° C.: 405.18 pg/mL
  concentration in standard products and quality control products, 2 days at 30° C.: 0.39387 ng/mL and 0.42435 ng/mL and 0.39731 ng/mL
  average concentration, Control: 399.18 pg/mL
  concentration in standard products and quality control products, Control: 0.39333 ng/mL and 0.41828 ng/mL and 0.38593 ng/mL

## O=C(O)CC(O)(CC(=O)O)C(=O)O [citric acid]
[3]; plasma at a high concentration level, plasma containing 500 μg/mL of the component, control plasma 0.624
  Ratio (Area/IS Area) E: 0
[3]; plasma at a high concentration level, plasma containing 500 μg/mL of the component, control plasma 1.522
  Ratio (Area/IS Area) NE: 0
[3]; plasma at a high concentration level, plasma containing 500 μg/mL of the component, control plasma 2.27
  Ratio (Area/IS Area) DA: 0
[3]; plasma at a high concentration level, plasma containing 2,000 μg/mL of the component, control plasma 0.624
  Ratio (Area/IS Area) E: 0
[3]; plasma at a high concentration level, plasma containing 2,000 μg/mL of the component, control plasma 1.522
  Ratio (Area/IS Area) NE: 0
[3]; plasma at a high concentration level, plasma containing 2,000 μg/mL of the component, control plasma 2.27
  Ratio (Area/IS Area) DA: 0
[3]; plasma at a low concentration level, plasma containing 500 μg/mL of the component, control plasma 0.079
  Ratio (Area/IS Area) E: 0
[3]; plasma at a low concentration level, plasma containing 500 μg/mL of the component, control plasma 0.219
  Ratio (Area/IS Area) NE: 0
[3]; plasma at a low concentration level, plasma containing 500 μg/mL of the component, control plasma 0.233
  Ratio (Area/IS Area) DA: 0
[3]; plasma at a low concentration level, plasma containing 2,000 μg/mL of the component, control plasma 0.079
  Ratio (Area/IS Area) E: 0
[3]; plasma at a low concentration level, plasma containing 2,000 μg/mL of the component, control plasma 0.219
  Ratio (Area/IS Area) NE: 0
[3]; plasma at a low concentration level, plasma containing 2,000 μg/mL of the component, control plasma 0.233
  Ratio (Area/IS Area) DA: 0

## O=S([O-])S(=O)(=O)[O-].[Na+].[Na+] [sodium pyrosulfite]
[3]; [6]
  Ratio (Area/IS Area) E: 0
[3]; [7]
  Ratio (Area/IS Area) NE: 0
[3]; [8]
  Ratio (Area/IS Area) DA: 0
[3]; [9]
  Ratio (Area/IS Area) E: 0
[3]; [10]
  Ratio (Area/IS Area) NE: 0
[3]; [11]
  Ratio (Area/IS Area) DA: 0
[3]; [12]
  Ratio (Area/IS Area) E: 0
[3]; [13]
  Ratio (Area/IS Area) NE: 0
[3]; [14]
  Ratio (Area/IS Area) DA: 0
[3]; [15]
  Ratio (Area/IS Area) E: 0
[3]; [16]
  Ratio (Area/IS Area) NE: 0
[3]; [17]
  Ratio (Area/IS Area) DA: 0

## CC(=O)O [acetic acid]
[3]; [18]
  Ratio (Area/IS Area) E: 0
[3]; [19]
  Ratio (Area/IS Area) NE: 0
[3]; [20]
  Ratio (Area/IS Area) DA: 0
[3]; [21]
  Ratio (Area/IS Area) E: 0
[3]; [22]
  Ratio (Area/IS Area) NE: 0
[3]; [23]
  Ratio (Area/IS Area) DA: 0
[3]; [24]
  Ratio (Area/IS Area) E: 0
[3]; [25]
  Ratio (Area/IS Area) NE: 0
[3]; [26]
  Ratio (Area/IS Area) DA: 0
[3]; [27]
  Ratio (Area/IS Area) E: 0
[3]; [28]
  Ratio (Area/IS Area) NE: 0
[3]; [29]
  Ratio (Area/IS Area) DA: 0

## O=P(O)(O)O [phosphoric acid]
[3]; [18]
  Ratio (Area/IS Area) E: 0
[3]; [19]
  Ratio (Area/IS Area) NE: 0
[3]; [20]
  Ratio (Area/IS Area) DA: 0
[3]; [21]
  Ratio (Area/IS Area) E: 0
[3]; [22]
  Ratio (Area/IS Area) NE: 0
[3]; [23]
  Ratio (Area/IS Area) DA: 0
[3]; [24]
  Ratio (Area/IS Area) E: 0
[3]; [25]
  Ratio (Area/IS Area) NE: 0
[3]; [26]
  Ratio (Area/IS Area) DA: 0
[3]; [27]
  Ratio (Area/IS Area) E: 0
[3]; [28]
  Ratio (Area/IS Area) NE: 0
[3]; [29]
  Ratio (Area/IS Area) DA: 0

## O=C(O)CN(CCN(CC(=O)O)CC(=O)O)CC(=O)O.[Na].[Na] [disodium EDTA, disodium ethylenediaminetetraacetic acid]
[3]; [6]
  Ratio (Area/IS Area) E: 0
[3]; [7]
  Ratio (Area/IS Area) NE: 0
[3]; [8]
  Ratio (Area/IS Area) DA: 0
[3]; [9]
  Ratio (Area/IS Area) E: 0
[3]; [10]
  Ratio (Area/IS Area) NE: 0
[3]; [11]
  Ratio (Area/IS Area) DA: 0
[3]; [12]
  Ratio (Area/IS Area) E: 0
[3]; [13]
  Ratio (Area/IS Area) NE: 0
[3]; [14]
  Ratio (Area/IS Area) DA: 0
[3]; [15]
  Ratio (Area/IS Area) E: 0
[3]; [16]
  Ratio (Area/IS Area) NE: 0
[3]; [17]
  Ratio (Area/IS Area) DA: 0
[3]; single components as stabilizers
  stabilizing effect on catecholamines in plasma: no obvious stabilizing effect
